In one experiment the target is T1, Rat FAAH (Rattus norvegicus, UniProt P97612).
T1 construct: expressed in transfected cells; host or cells: SK-N-MC cells stably transfected with rat FAAH cDNA (G418 selection)
T1 sequence (P97612 1-579): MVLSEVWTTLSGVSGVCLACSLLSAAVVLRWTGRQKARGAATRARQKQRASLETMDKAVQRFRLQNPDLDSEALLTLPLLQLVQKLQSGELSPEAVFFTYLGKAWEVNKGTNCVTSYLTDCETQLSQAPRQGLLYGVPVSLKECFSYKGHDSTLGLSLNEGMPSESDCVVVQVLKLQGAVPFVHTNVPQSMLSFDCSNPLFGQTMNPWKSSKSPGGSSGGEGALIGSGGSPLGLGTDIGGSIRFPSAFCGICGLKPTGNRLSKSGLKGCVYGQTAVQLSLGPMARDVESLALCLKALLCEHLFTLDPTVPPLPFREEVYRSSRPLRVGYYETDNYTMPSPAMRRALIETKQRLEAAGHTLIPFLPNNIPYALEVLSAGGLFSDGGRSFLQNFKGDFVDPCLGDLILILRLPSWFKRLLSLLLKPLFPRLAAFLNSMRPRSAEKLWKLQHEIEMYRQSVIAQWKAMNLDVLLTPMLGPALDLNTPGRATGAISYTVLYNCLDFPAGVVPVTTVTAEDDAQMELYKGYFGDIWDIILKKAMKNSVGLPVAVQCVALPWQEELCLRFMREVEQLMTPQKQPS
Briefly: Assay Method 2: rat FAAH assay (3H-anandamide hydrolysis in cell homogenate). It counts as biochemical. Put shortly:
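Homogenates of T84 cells or SK-N-MC cells stably transfected with rat FAAH, in pH 9 Tris/EDTA/glycerol/Triton buffer, incubated 1 h at room temperature with 3H-anandamide. Released labeled ethanolamine separated from substrate on activated charcoal and counted by scintillation; values averaged over runs.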

For the next experiment, the target named is T2, FAAH (Homo sapiens, UniProt O00519).
T2 sequence (O00519 1-579): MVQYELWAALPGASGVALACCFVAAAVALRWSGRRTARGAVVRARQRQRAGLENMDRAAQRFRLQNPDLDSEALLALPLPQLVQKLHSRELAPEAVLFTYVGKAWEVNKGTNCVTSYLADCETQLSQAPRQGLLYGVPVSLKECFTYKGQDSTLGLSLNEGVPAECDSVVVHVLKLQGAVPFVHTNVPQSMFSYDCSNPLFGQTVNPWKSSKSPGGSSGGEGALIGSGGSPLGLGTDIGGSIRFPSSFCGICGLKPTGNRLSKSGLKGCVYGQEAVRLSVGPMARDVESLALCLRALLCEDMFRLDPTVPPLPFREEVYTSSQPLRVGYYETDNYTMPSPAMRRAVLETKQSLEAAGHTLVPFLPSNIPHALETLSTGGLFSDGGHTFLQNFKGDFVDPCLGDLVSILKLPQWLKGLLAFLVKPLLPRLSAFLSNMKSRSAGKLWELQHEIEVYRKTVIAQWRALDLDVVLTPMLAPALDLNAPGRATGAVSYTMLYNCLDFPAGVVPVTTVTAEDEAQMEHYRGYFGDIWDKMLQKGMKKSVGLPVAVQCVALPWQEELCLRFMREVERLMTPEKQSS
The experiment in a line: Assay Method 1: human FAAH assay (3H-anandamide hydrolysis in cell homogenate). The experiment is classed as biochemical. Also noted: expressed in transfected cells; host or cells: SK-N-MC cells stably transfected with human FAAH cDNA (G418 selection); alternatively T84 cell pellets. In a few lines:
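Homogenates of T84 cells or SK-N-MC cells stably transfected with human FAAH, in pH 9 Tris/EDTA buffer with 0.02% Triton X-100. Incubated 1 h at rt with compound and 80 nM (final) [3H-ethanolamine]-anandamide. Released 3H-ethanolamine separated on charcoal filters and counted by scintillation.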

Where a name gives a salt, the structure may show the parent alone. Read-outs that look alike come from different tables or passages of the source.

Drawing on patent US20120083476A1, “HETEROARYL-SUBSTITUTED SPIROCYCLIC DIAMINE UREA MODULATORS OF FATTY ACID AMIDE HYDROLASE” (Janssen Pharmaceutica NV, priority 2009, published 2012), this text covers IC50 for 23 compounds.

The IC50 is the concentration that gives 50% inhibition.

Turning to `O=C(Nc1cncc(Br)c1)N1CC2(CCN(Cc3cccc(Oc4ccc(Cl)cc4)c3)CC2)C1` [Example 82, N-(5-bromopyridin-3-yl)-7-(3-(4-chlorophenoxy)benzyl)-2,7-diazaspiro[3.5]nonane-2-carboxamide, trifluoroacetic acid salt], the IC50 at Rat FAAH (read-out: Assay 2 IC50) stood at 20 nM; at FAAH (read-out: Assay 1 IC50) it was 280 nM.
The matching figures for `N#Cc1ccncc1NC(=O)N1CC2(CCN(Cc3cccc(Oc4ccc(Cl)cc4)c3)CC2)C1` [Example 84, 7-(3-(4-chlorophenoxy)benzyl)-N-(4-cyanopyridin-3-yl)-2,7-diazaspiro[3.5]nonane-2-carboxamide]: 10 nM and 110 nM.
Take `Cc1ccncc1NC(=O)N1CC2(CCN(Cc3cccc(Oc4ccc(Cl)cc4)c3)CC2)C1` [Example 85, 7-(3-(4-chlorophenoxy)benzyl)-N-(4-methylpyridin-3-yl)-2,7-diazaspiro[3.5]nonane-2-carboxamide]: the IC50 was found to be 40 nM at Rat FAAH (read-out: Assay 2 IC50) and 80 nM at FAAH.
As to `O=C(Nc1cnccc1C(F)(F)F)N1CC2(CCN(Cc3cccc(Oc4ccc(Cl)cc4)c3)CC2)C1` [Example 86, 7-(3-(4-chlorophenoxy)benzyl)-N-(4-(trifluoromethyl)pyridin-3-yl)-2,7-diazaspiro[3.5]nonane-2-carboxamide], the IC50 was determined as 40 nM on Rat FAAH (read-out: Assay 2 IC50) and 420 nM at FAAH (read-out: Assay 1 IC50).
Turning to `O=C(Nc1ccc(-n2nccn2)nc1)N1CC2(CCN(Cc3ccc4c(c3)OC(F)(F)O4)CC2)C1` [Example 88, 7-(2,2-Difluoro-benzo[1,3]dioxol-5-ylmethyl)-2,7-diaza-spiro[3.5]nonane-2-carboxylic acid (6-[1,2,3]triazol-2-yl-pyridin-3-yl)-amide], the IC50 at Rat FAAH (read-out: Assay 2 IC50) is over 10000 nM; at FAAH (read-out: Assay 1 IC50) it was 4000 nM.
Regarding `O=C(Nc1cccnc1)N1CCC2(CCN(Cc3cccc(Oc4ccc(Cl)cc4)c3)CC2)C1` [Example 90, 8-[3-(4-Chloro-phenoxy)-benzyl]-2,8-diaza-spiro[4.5]decane-2-carboxylic acid pyridin-3-ylamide, trifluoroacetic acid salt], the IC50 against Rat FAAH is 430 nM; on FAAH, 2000 nM.
For the compound `O=C(Nc1ccc(-n2nccn2)nc1)N1CCC2(CCN(Cc3cccc(Oc4ccc(Cl)cc4)c3)CC2)C1` [Example 91, 8-[3-(4-Chloro-phenoxy)-benzyl]-2,8-diaza-spiro[4.5]decane-2-carboxylic acid (6-[1,2,3]triazol-2-yl-pyridin-3-yl)-amide, trifluoroacetic acid salt], the IC50 at Rat FAAH (read-out: Assay 2 IC50) was 260 nM; at FAAH (read-out: Assay 1 IC50), 200 nM.
As to `O=C(Nc1noc2ccccc12)N1CCC2(CCN(Cc3cccc(Oc4ccc(Cl)cc4)c3)CC2)C1` [Example 92, 8-[3-(4-Chloro-phenoxy)-benzyl]-2,8-diaza-spiro[4.5]decane-2-carboxylic acid benzo[d]isoxazol-3-ylamide, trifluoroacetic acid salt], the IC50 is 20 nM on Rat FAAH (read-out: Assay 2 IC50) and 160 nM on FAAH (read-out: Assay 1 IC50).
`O=C(Nc1cccnc1)N1CCC2(CCCN2Cc2cccc(Oc3ccc(Cl)cc3)c2)CC1` [Example 93, 1-[3-(4-Chloro-phenoxy)-benzyl]-1,8-diaza-spiro[4.5]decane-8-carboxylic acid pyridin-3-ylamide]: the IC50 at Rat FAAH (read-out: Assay 2 IC50) is 480 nM; at FAAH (read-out: Assay 1 IC50), 1100 nM.
Regarding `O=C(Nc1ccc(-n2nccn2)nc1)N1CCC2(CCCN2Cc2cccc(Oc3ccc(Cl)cc3)c2)CC1` [Example 94, 1-[3-(4-Chloro-phenoxy)-benzyl]-1,8-diaza-spiro[4.5]decane-8-carboxylic acid (6-[1,2,3]triazol-2-yl-pyridin-3-yl)-amide], the values for the IC50 on Rat FAAH (read-out: Assay 2 IC50) and on FAAH (read-out: Assay 1 IC50) were 580 nM and 370 nM, respectively.
The matching figures for `O=C(Nc1cnc2[nH]ccc2c1)N1CCC2(CCCN2Cc2cccc(Oc3ccc(Cl)cc3)c2)CC1` [Example 95, 1-[3-(4-Chloro-phenoxy)-benzyl]-1,8-diaza-spiro[4.5]decane-8-carboxylic acid (1H-pyrrolo[2,3-b]pyridin-5-yl)-amide]: 400 nM and 780 nM.
Consider `O=C(Nc1cccnc1)N1CC2(CCCN(Cc3cccc(Oc4ccc(Cl)cc4)c3)C2)C1` [Example 96, 6-[3-(4-Chloro-phenoxy)-benzyl]-2,6-diaza-spiro[3.5]nonane-2-carboxylic acid pyridin-3-ylamide], for which the IC50 came to 6000 nM on Rat FAAH (read-out: Assay 2 IC50) and 8000 nM against FAAH.
Take `O=C(Nc1cccnc1)N1CC2(CCN(Cc3ccccc3)CC2)C1` [Example 97, 7-Benzyl-2,7-diaza-spiro[3.5]nonane-2-carboxylic acid pyridin-3-ylamide]: the IC50 at Rat FAAH (read-out: Assay 2 IC50) and on FAAH (read-out: Assay 1 IC50) was over 10000 nM in each case.
Consider `O=C(Nc1cccnc1)N1CC2(CCN(Cc3ccc(Cl)cc3)CC2)C1` [Example 100, 7-(4-Chloro-benzyl)-2,7-diaza-spiro[3.5]nonane-2-carboxylic acid pyridin-3-ylamide], for which the half-inhibitory concentration (IC50) was over 10000 nM at Rat FAAH (read-out: Assay 2 IC50) and 8000 nM on FAAH (read-out: Assay 1 IC50).
As for `O=C(Nc1cccnc1)N1CC2(CCN(Cc3ccc(Cl)c(Cl)c3)CC2)C1` [Example 101, 7-(3,4-dichlorobenzyl)-N-(pyridin-3-yl)-2,7-diazaspiro[3.5]nonane-2-carboxamide], the IC50 on Rat FAAH (read-out: Assay 2 IC50) is over 10000 nM; on FAAH (read-out: Assay 1 IC50), 6000 nM.
For the compound `O=C(Nc1cccnc1)N1CC2(CCN(Cc3ccc(OC(F)(F)F)cc3)CC2)C1` [Example 103, N-(pyridin-3-yl)-7-(4-(trifluoromethoxy)benzyl)-2,7-diazaspiro[3.5]nonane-2-carboxamide], the results for the IC50 on Rat FAAH (read-out: Assay 2 IC50) and on FAAH (read-out: Assay 1 IC50) were over 10000 nM and 1300 nM, respectively.
The matching figures for `O=C(Nc1cccnc1)N1CC2(CCN(Cc3ccc4ccccc4c3)CC2)C1` [Example 104, 7-(naphthalen-2-ylmethyl)-N-(pyridin-3-yl)-2,7-diazaspiro[3.5]nonane-2-carboxamide]: over 10000 nM and 2500 nM.
The matching figures for `O=C(Nc1cccnc1)N1CC2(CCN(Cc3cccc(C#Cc4ccccc4)c3)CC2)C1` [Example 105, 7-(3-(phenylethynyl)benzyl)-N-(pyridin-3-yl)-2,7-diazaspiro[3.5]nonane-2-carboxamide]: 8000 nM and 370 nM.
The matching figures for `CS(=O)(=O)c1ccc(CN2CCC3(CC2)CN(C(=O)Nc2cccnc2)C3)cc1` [Example 106, 7-(4-(methylsulfonyl)benzyl)-N-(pyridin-3-yl)-2,7-diazaspiro[3.5]nonane-2-carboxamide]: over 10000 nM and over 10000 nM.
As to `O=C(Nc1cccnc1)N1CC2(CCN(Cc3ccccc3O)CC2)C1` [Example 107, 7-(2-hydroxybenzyl)-N-(pyridin-3-yl)-2,7-diazaspiro[3.5]nonane-2-carboxamide], the IC50 at Rat FAAH (read-out: Assay 2 IC50) and at FAAH (read-out: Assay 1 IC50) was over 10000 nM throughout.
For the compound `O=C(Nc1cccnc1)N1CC2(CCN(Cc3ccc4ccccc4c3O)CC2)C1` [Example 108, 7-((1-hydroxynaphthalen-2-yl)methyl)-N-(pyridin-3-yl)-2,7-diazaspiro[3.5]nonane-2-carboxamide], the IC50 on Rat FAAH (read-out: Assay 2 IC50) was over 10000 nM; at FAAH (read-out: Assay 1 IC50), 8000 nM.
Take `O=C(Nc1cccnc1)N1CC2(CCN(Cc3ccc(Cl)c(OC(F)(F)F)c3)CC2)C1` [Example 110, 7-(4-chloro-3-(trifluoromethoxy)benzyl)-N-(pyridin-3-yl)-2,7-diazaspiro[3.5]nonane-2-carboxamide]: the IC50 at Rat FAAH (read-out: Assay 2 IC50) was determined as 6000 nM; on FAAH (read-out: Assay 1 IC50) it was 1300 nM.
The matching figures for `O=C(Nc1cccnc1)N1CC2(CCN(Cc3ccc(OC(F)(F)F)c(Cl)c3)CC2)C1` [Example 111, 7-(3-chloro-4-(trifluoromethoxy)benzyl)-N-(pyridin-3-yl)-2,7-diazaspiro[3.5]nonane-2-carboxamide]: over 10000 nM and 1180 nM.
